Assay results taken from PMC5155152, “A diverse intrinsic antibiotic resistome from a cave bacterium” (Nature Communications, 2016).
In brackets after ≈: the same amount, converted by molar mass. Where two headings read alike, the source gives them in different places. Bridge positions count the residues as written; N and C are the ends. Square brackets hold non-standard residues; d marks the D form. Peptide text beside a SMILES is read from it. * marks the point of attachment. Ileψ(thiazoline)Cys = CC[C@H](C)[C@H](N)C1=N[C@H](C(=O)*)CS1; dOrn = NCCC[C@@H](N)C(=O)O

Assays:
Paenibacillus sp. LC231 [1] = test system: T1, Paenibacillus sp. LC231; assay: microbe, parasite or virus in culture; design: antibacterial susceptibility, minimal inhibitory concentration (quantitative antibiogram)
T1 construct: LC231
Text: (§1) We generated a quantitative antibiogram for Paenibacillus sp. LC231 for 40 different antibiotics that target diverse cellular processes and compared it with the susceptibility of a surface strain of Paenibacillus lautus ATCC 43898, the pathogen Staphylococcus aureus RN4220 and the environmental bacterium Kocuria rhizophila (formerly identified as Micrococcus luteus) (Supplementary Tables 1 and 2). […] Further experiments in this study investigate the molecular basis of resistance and not the contribution of each genetic determinant to the resistance phenotype of Paenibacillus sp. LC231. […] We focused our investigation on Paenibacillus sp. LC231 and determined that in addition to resistance to 14 classes of antibiotic, it inactivates 7 distinct classes.

Paenibacillus sp. LC231 [2] = test system: T1, Paenibacillus sp. LC231; assay: microbe, parasite or virus in culture; design: broth microdilution MIC, growth inhibition of Paenibacillus sp. LC231
Text: as §1

MphI = test system: T2, MphI; assay: steady-state kinetics; format: biochemical, Paenibacillus sp. LC231; details: 400 μM tylosin, 50 mM HEPES pH 7.5, 40 mM KCl, 10 mM MgCl2, 25 °C
T2 construct: recombinant in E. coli BL21(DE3), pET vector, Ni-NTA purified

SMILES | MIC (Paenibacillus sp. LC231 [1]) [µg/mL] | other results
N=C1NCCC([C@@H]2NC(=O)/C(=C/NC(N)=O)NC(=O)[C@H](CNC(=O)CC(N)CCCN)NC(=O)[C@H](CO)NC(=O)[C@@H](N)CNC2=O)N1 (mixture of isomers) [capreomycin] | 32 | –
NCC[C@H](O)C(=O)N[C@@H]1C[C@H](N)[C@@H](O[C@H]2O[C@H](CN)[C@@H](O)[C@H](O)[C@H]2O)[C@H](O)[C@H]1O[C@H]1O[C@H](CO)[C@@H](O)[C@H](N)[C@H]1O [Amikacin] | 16 (≈ 27.3 µM) | –
CC1(C)S[C@@H]2[C@H](NC(=O)[C@H](N)c3ccccc3)C(=O)N2[C@H]1C(=O)O [Ampicillin] | 8 (≈ 22.9 µM) | –
CN[C@@H]1[C@@H](O[C@H]2O[C@H](CO)[C@@H](N)[C@H](O)[C@H]2O)O[C@H]2C[C@@H](N)[C@@H](O[C@H]3[C@H](O)[C@@H](O)[C@H](N)C[C@@H]3N)O[C@@H]2[C@@H]1O [Apramycin] | 8 (≈ 14.8 µM) | –
CC[C@H]1OC(=O)[C@H](C)[C@@H](O[C@H]2C[C@@](C)(OC)[C@@H](O)[C@H](C)O2)[C@H](C)[C@@H](O[C@@H]2O[C@H](C)C[C@H](N(C)C)[C@H]2O)[C@](C)(O)C[C@@H](C)CN(C)[C@H](C)[C@@H](O)[C@]1(C)O [Azithromycin] | 16 (≈ 21.4 µM) | –
CC[C@H](C)[C@H](N)C1=N[C@H](C(=O)N[C@@H](CC(C)C)C(=O)N[C@H](CCC(=O)O)C(=O)N[C@H](C(=O)N[C@H]2CCCCNC(=O)[C@H](CC(N)=O)NC(=O)[C@@H](CC(=O)O)NC(=O)[C@H](Cc3cnc[nH]3)NC(=O)[C@@H](Cc3ccccc3)NC(=O)[C@H]([C@@H](C)CC)NC(=O)[C@@H](CCCN)NC2=O)[C@@H](C)CC)CS1 [Bacitracin] ({Ileψ(thiazoline)Cys}-L[dE]IK[dOrn]I[dF]H[dD]N; lactam 4-C) | – | MIC (Paenibacillus sp. LC231 [2]): ≥ 128 µg/mL
CO/N=C(\C(=O)N[C@@H]1C(=O)N2C(C(=O)O)=C(COC(C)=O)CS[C@H]12)c1csc(N)n1 [Cefotaxime] | 2 (≈ 4.39 µM) | –
CC1=C(C(=O)O)N2C(=O)[C@@H](NC(=O)[C@H](N)c3ccccc3)[C@H]2SC1 [Cephalexin] | ≥ 128 | –
O=C(O)c1cn(C2CC2)c2cc(N3CCNCC3)c(F)cc2c1=O [Ciprofloxacin] | 0.25 (≈ 0.754 µM) | –
CC[C@H]1OC(=O)[C@H](C)[C@@H](O[C@H]2C[C@@](C)(OC)[C@@H](O)[C@H](C)O2)[C@H](C)[C@@H](O[C@@H]2O[C@H](C)C[C@H](N(C)C)[C@H]2O)[C@](C)(OC)C[C@@H](C)C(=O)[C@H](C)[C@@H](O)[C@]1(C)O [Clarithromycin] | 0.25 (≈ 0.334 µM) | –
CCC[C@@H]1C[C@@H](C(=O)N[C@@H]([C@H]2O[C@H](SC)[C@H](O)[C@@H](O)[C@H]2O)[C@H](C)Cl)N(C)C1 [Clindamycin] | 16 (≈ 37.6 µM) | –
CCCCCCCCCC(=O)N[C@@H](Cc1c[nH]c2ccccc12)C(=O)N[C@H](CC(N)=O)C(=O)N[C@@H](CC(=O)O)C(=O)N[C@@H]1C(=O)NCC(=O)N[C@@H](CCCN)C(=O)N[C@@H](CC(=O)O)C(=O)N[C@H](C)C(=O)N[C@@H](CC(=O)O)C(=O)NCC(=O)N[C@H](CO)C(=O)N[C@@H]([C@H](C)CC(=O)O)C(=O)N[C@@H](CC(=O)c2ccccc2N)C(=O)O[C@@H]1C [Daptomycin] | – | MIC (Paenibacillus sp. LC231 [2]): 16 µg/mL (≈ 9.87 µM)
CC[C@H]1OC(=O)[C@H](C)[C@@H](O[C@H]2C[C@@](C)(OC)[C@@H](O)[C@H](C)O2)[C@H](C)[C@@H](O[C@@H]2O[C@H](C)C[C@H](N(C)C)[C@H]2O)[C@](C)(O)C[C@@H](C)C(=O)[C@H](C)[C@@H](O)[C@]1(C)O [Erythromycin] | 2 (≈ 2.73 µM) | –
CC1=C\[C@@H](O)C[C@@H](F)Cc2nc(co2)C(=O)N2CCC[C@@H]2C(=O)O[C@H](C(C)C)[C@H](C)/C=C/C(=O)NC\C=C\1 [Flopristin] | 32 (≈ 60.2 µM) | –
C[C@@H]1O[C@@H]1P(=O)(O)O [Fosfomycin] | ≥ 128 | –
CC(=O)O[C@H]1C[C@@]2(C)[C@@H](C[C@@H](O)[C@H]3[C@@]4(C)CC[C@@H](O)[C@@H](C)[C@@H]4CC[C@@]32C)/C1=C(\CCC=C(C)C)C(=O)O [Fusidic acid] | 8 (≈ 15.5 µM) | –
Nc1nc2c(ncn2[C@@H]2O[C@H](COP(=O)(O)OP(=O)(O)OP(=O)(O)O)[C@@H](O)[C@H]2O)c(=O)[nH]1 [GTP] | – | Km (MphI): 10 ± 1.8 µM
CNC(C)[C@@H]1CC[C@@H](N)[C@@H](O[C@H]2[C@H](O)[C@@H](O[C@H]3OC[C@](C)(O)[C@H](NC)[C@H]3O)[C@H](N)C[C@@H]2N)O1 (some centres unmarked) [Gentamicin] | 2 (≈ 4.19 µM) | –
NC[C@H]1O[C@H](O[C@H]2[C@H](O)[C@@H](O[C@H]3O[C@H](CO)[C@@H](O)[C@H](N)[C@H]3O)[C@H](N)C[C@@H]2N)[C@H](O)[C@@H](O)[C@@H]1O [Kanamycin] | ≥ 128 | –
C[C@H]1COc2c(N3CCN(C)CC3)c(F)cc3c(=O)c(C(=O)O)cn1c23 [Levofloxacin] | 0.25 (≈ 0.692 µM) | –
